Assay results from article PMC4967259 (The American journal on addictions / American Academy of …, 2016).
Like-named read-outs stand apart in the source and are kept apart here.

Key:
[1] = for elimination half-life: metabolite in plasma after iv cocaine, unaffected by donepezil treatment
[2] = Cardiovascular response; type: in vivo, human
[3] = tested on: rats; conditions: cited from earlier work
[4] = tested on: rodent; conditions: rodent studies, acute; cited from earlier work
[5] = tested on: rats; conditions: cited from earlier work; remark: listed apart in the source
[6] = rat model of ischemic heart disease

Which elimination half-life [1] does the source give for CN1[C@H]2CC[C@@H]1[C@@H](C(=O)O)[C@@H](OC(=O)c1ccccc1)C2 [Benzoylecgonine, benzoylecgonine] here?
Its elimination half-life is “approximately six hours”.

For COC(=O)[C@H]1[C@@H](OC(=O)c2ccccc2)C[C@@H]2CC[C@H]1N2C [Cocaine, cocaine], which “change in systolic blood pressure” value ([2]; iv cocaine 0.18 and 0.36 mg/kg, most pronounced over the initial 30 minutes) is on record?
The value was “dose-related increases”.

And the Tmax ([1]; human, in vivo, iv, 0.36 mg/kg)?
Its Tmax is 10 min.

Which “effect on increases in blood pressure” value ([2]; oral donepezil 5 mg daily, high-dose cocaine (0.36 mg/kg iv)) does the source give for COc1cc2c(cc1OC)C(=O)C(CC1CCN(Cc3ccccc3)CC1)C2 (centres unmarked) [Donepezil, donepezil] here?
Its value is “not affected”.

And the “effect on diastolic blood pressure and heart rate after cocaine” value ([2]; oral donepezil 5 mg daily, iv cocaine, data not shown)?
Its value is “unaffected”.

And the “effect on peak values of blood pressure and heart rate” value ([2]; oral donepezil 5 mg daily, iv placebo or cocaine 0.18 and 0.36 mg/kg)?
Its value is “did not modify peak values”.

What about the “effect on drug-induced elevations of systolic blood pressure” value ([2]; oral donepezil 5 mg daily, low-dose cocaine (0.18 mg/kg iv), p < 0.001) of the same molecule?
Its value is “attenuated”.

And the blood pressure [3, 6]?
The blood pressure was “without affecting blood pressure”.

And the heart rate [3, 6]?
Its heart rate is “decreased heart rate”.

What about the “heart failure and survival” value ([3]; rat, following coronary artery ligation) of the same molecule?
Its value is “prevent heart failure and improve survival”.

And the cocaine self-administration [4]?
Its cocaine self-administration is “attenuate cocaine self-administration”.

With COC(=O)[C@@H]1[C@H]2CC[C@@H](C[C@@H]1O)N2C [Ecgonine Methyl Ester, ecgonine methyl ester] as the molecule, how does the elimination half-life [1] read?
The elimination half-life was “approximately five hours”.

For CNC(=O)Oc1ccc2c(c1)[C@]1(C)CCN(C)[C@@H]1N2C [physostigmine], which cocaine-induced lethality ([5]; high doses of physostigmine) is on record?
Its cocaine-induced lethality is “increased”.

What about the cocaine-induced lethality ([5]; low doses of physostigmine) of the same molecule?
Its cocaine-induced lethality is “decreased”.
